Data set [1] deals with T1, type B monoamine oxidase (MAO.B) (Rattus norvegicus, UniProt P19643).
T1 construct: the brains being removed, weighed, homogeneized; from tissue; host or cells: brain of orally dosed rats, homogenized
T1 sequence (P19643 1-520): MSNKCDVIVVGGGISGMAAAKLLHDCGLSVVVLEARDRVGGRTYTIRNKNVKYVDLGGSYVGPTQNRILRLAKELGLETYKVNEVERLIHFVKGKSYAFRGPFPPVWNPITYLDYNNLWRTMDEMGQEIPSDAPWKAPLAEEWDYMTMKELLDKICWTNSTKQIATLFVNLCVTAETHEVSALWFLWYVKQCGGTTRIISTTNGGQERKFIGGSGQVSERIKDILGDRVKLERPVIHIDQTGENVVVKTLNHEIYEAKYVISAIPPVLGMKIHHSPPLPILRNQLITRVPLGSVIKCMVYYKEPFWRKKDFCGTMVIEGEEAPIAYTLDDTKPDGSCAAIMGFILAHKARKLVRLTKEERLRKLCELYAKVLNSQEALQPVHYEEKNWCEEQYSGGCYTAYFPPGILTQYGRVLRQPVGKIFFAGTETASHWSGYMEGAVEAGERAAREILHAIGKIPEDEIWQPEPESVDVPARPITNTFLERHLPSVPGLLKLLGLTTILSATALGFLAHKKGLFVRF
Kind of data set: in vitro MAO.B inhibition on homogenized rat brain, phenylethylamine (PEA) substrate. The data set is classed as biochemical, rats. The settings on record: Table 1, rat brain homogenate, read-out: MAO.B inhibition effect (P.E.A.) IC 50. From the text: (§1) in vitro, on the homogeneized brain of rats, by measuring the dose inhibiting by 50% (IC 50) the activity of monoamine oxidase (MAO) by taking phenylethylamine (PEA) as substrate of type B monoamine oxidase (MAO.B) and serotonine (5-HT) as substrate of type A monoamine oxidase (MAO.A), according to the procedure described by M. STROLIN BENEDETTI et al. in: Monoamine oxidase Basic and Clinical Frontiers, publishers K. KAMISO-E. USDIN-T. NAGATSO-Excepta Medica (1982)-page 209);

Data set [2] is described as follows: oral acute toxicity in mice (Miller and Tainter's method). The data set is classed as in vivo. As to conditions: mouse, in vivo, mice, oral, read-out: Acute toxicity (mice) LD 50. An excerpt: (§2) The results obtained in the in vitro test are shown in table 1 below and the results obtained in the ex vivo test, as well as the oral acute toxicity in mice evaluated according to MILLER and TAINTER's method [Proc. Soc.

Data set [3] deals with T2, type A monoamine oxidase (MAO.A) (Rattus norvegicus, UniProt P21396).
T2 construct: the brains being removed, weighed, homogeneized; from tissue; host or cells: brain of orally dosed rats, homogenized
T2 sequence (P21396 1-526): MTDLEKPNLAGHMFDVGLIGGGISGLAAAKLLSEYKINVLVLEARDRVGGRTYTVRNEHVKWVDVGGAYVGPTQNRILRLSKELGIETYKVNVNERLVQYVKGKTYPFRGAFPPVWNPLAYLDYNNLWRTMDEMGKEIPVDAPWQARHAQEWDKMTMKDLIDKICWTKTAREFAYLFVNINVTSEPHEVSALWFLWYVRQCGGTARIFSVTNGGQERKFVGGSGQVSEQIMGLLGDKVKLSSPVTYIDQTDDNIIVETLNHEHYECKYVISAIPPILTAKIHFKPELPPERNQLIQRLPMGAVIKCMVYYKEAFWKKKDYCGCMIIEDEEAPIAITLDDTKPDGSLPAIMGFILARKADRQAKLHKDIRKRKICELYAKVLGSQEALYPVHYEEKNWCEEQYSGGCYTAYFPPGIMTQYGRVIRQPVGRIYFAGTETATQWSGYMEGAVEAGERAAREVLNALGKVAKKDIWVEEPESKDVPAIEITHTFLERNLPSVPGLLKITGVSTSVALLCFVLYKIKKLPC
Kind of data set: ex vivo brain MAO.A inhibition after single oral dose in rats, 5-HT substrate. As to conditions: for inhibition at 10 mg/kg: Table 3, 10 mg/kg p.o.; for inhibition at 20 mg/kg: Table 3, 20 mg/kg p.o. On the procedure:
(§3) ex vivo, on rats to which was administered orally a single dose of the compounds of formula (I) (or their pharmaceutically acceptable salts) or their corresponding racemic of formula (Io), in a 0.5% suspension in methylcellulose, the rats being sacrificed by being beheaded at varying times, the brains being removed, weighed, homogeneized and the determination of the MAOI activity being made by using serotonine and phenylethylamine, according to the procedure described by J. P. KAN and M. STROLIN-BENEDETTI in Life Sciences 26, 2165, (1980).

For data set [4], the target named is T1, type B monoamine oxidase (MAO.B). Kind of data set: ex vivo brain MAO.B inhibition after single oral dose in rats, PEA substrate. The settings on record: for inhibition at 5 mg/kg / inhibition at 10 mg/kg / inhibition at 20 mg/kg: rat, po; for inhibition at 5 mg/kg: 5 mg/kg p.o.; for inhibition at 10 mg/kg: 10 mg/kg p.o.; for inhibition at 20 mg/kg: 20 mg/kg p.o. The procedure: as §3

For data set [5], the target named is T2, type A monoamine oxidase (MAO.A). Kind of data set: in vitro MAO.A inhibition on homogenized rat brain, serotonine (5-HT) substrate. The settings on record: Table 1, rat brain homogenate, read-out: MAO.A inhibition effect (5-HT) IC 50. The data set is classed as biochemical, rats.
From the text: as §1

Data set [6] relates to mice. Kind of data set: oral acute toxicity in mice (Miller and Tainter's method). The data set is classed as in vivo. As to conditions: in words.
From the text: as §2

Setting [7] is: Table 3, 5 mg/kg p.o., rats, 30, unit inferred, read-out: % MAO inhibition effect after n hour(s), 5-HT.
Where [8] appears, read: Table 3, 5 mg/kg p.o., rats, 1 hour, read-out: % MAO inhibition effect after n hour(s), 5-HT.
[9] abbreviates: Table 3, 5 mg/kg p.o., rats, 2 hours, read-out: % MAO inhibition effect after n hour(s), 5-HT.
[10] abbreviates: Table 3, 5 mg/kg p.o., rats, 4 hours, read-out: % MAO inhibition effect after n hour(s), 5-HT.
Where [11] appears, read: Table 3, 5 mg/kg p.o., rats, 8 hours, read-out: % MAO inhibition effect after n hour(s), 5-HT.
Where [12] appears, read: Table 3, 5 mg/kg p.o., rats, 24 hours, read-out: % MAO inhibition effect after n hour(s), 5-HT.
[13] abbreviates: Table 3, rats, 30, unit inferred, read-out: % MAO inhibition effect after n hour(s), PEA.
Setting [14] is: Table 3, rats, 1 hour, read-out: % MAO inhibition effect after n hour(s), PEA.
Setting [15] is: Table 3, rats, 2 hours, read-out: % MAO inhibition effect after n hour(s), PEA.
The mark [16] stands for this setting: Table 3, rats, 4 hours, read-out: % MAO inhibition effect after n hour(s), PEA.
[17] abbreviates: Table 3, rats, 8 hours, read-out: % MAO inhibition effect after n hour(s), PEA.
The mark [18] stands for this setting: Table 3, rats, 24 hours, read-out: % MAO inhibition effect after n hour(s), PEA.
Where [19] appears, read: rats, 2 hours, read-out: % MAO inhibition effect after n hour(s), 5-HT.
Where [20] appears, read: rats, 8 hours, read-out: % MAO inhibition effect after n hour(s), 5-HT.
[21] abbreviates: rats, 24 hours, read-out: % MAO inhibition effect after n hour(s), 5-HT.

As usually defined, the inhibition is the change of the read-out against control, counted positive when it falls.

SMILES strings stand for the structures. Like-named read-outs stand apart in the source and are kept apart here. A value given as a limit tells only on which side of the number the result lay.

As to `O=C1OC(CO)CN1c1ccc(OCc2cccc(Cl)c2)cc1` (racemic) [Racemic of (Ia), reference compound], the IC50 in data set [1] was determined as 20 nM; in data set [5], 600 nM. Moreover, the LD50 in data set [2] (Table 3) was greater than 1000 mg/kg. The inhibition at 5 mg/kg in data set [3] (setting [7]) came out at 21%; in data set [3] (setting [8]) it was 18%; in data set [3] (setting [9]) it was 20%; in data set [3] (setting [10]), 9%; in data set [3] (setting [11]) it was 0%; in data set [3] (setting [12]), 2%. The inhibition at 5 mg/kg in data set [4] (setting [13]) was 79%; in data set [4] (setting [14]) it was 78%; in data set [4] (setting [15]) it was 79%; in data set [4] (setting [16]) it was 68%; in data set [4] (setting [17]), 47%; in data set [4] (setting [18]) it was 1%.
Turning to `CNCC1CN(c2ccc(OCc3cccc(Cl)c3)cc2)C(=O)O1` (racemic) [Racemic of (Ib), reference compound], the IC50 in data set [1] was found to be 34 nM; in data set [5], 14000 nM. The LD50 in data set [2] (Table 2) was greater than 1000 mg/kg. Moreover, the inhibition at 5 mg/kg in data set [3] (Table 2, 5 mg/kg p.o., rats, 1 hour, read-out: % MAO inhibition effect after n hour(s), 5-HT (IMAO.A)) turned out to be 7%; in data set [3] (Table 2, 5 mg/kg p.o., rats, 2 hours, read-out: % MAO inhibition effect after n hour(s), 5-HT (IMAO.A)) it was 8%; in data set [3] (Table 2, 5 mg/kg p.o., rats, 4 hours, read-out: % MAO inhibition effect after n hour(s), 5-HT (IMAO.A)) it was 10%; in data set [3] (Table 2, 5 mg/kg p.o., rats, 8 hours, read-out: % MAO inhibition effect after n hour(s), 5-HT (IMAO.A)), 8%; in data set [3] (Table 2, 5 mg/kg p.o., rats, 24 hours, read-out: % MAO inhibition effect after n hour(s), 5-HT (IMAO.A)), 1%; in data set [3] (Table 2, 5 mg/kg p.o., rats, 48 hours, read-out: % MAO inhibition effect after n hour(s), 5-HT (IMAO.A)) it was 1%. Also, the inhibition at 5 mg/kg in data set [3] (Table 2, 5 mg/kg p.o., rats, 72 hours, read-out: % MAO inhibition effect after n hour(s), 5-HT (IMAO.A)) was found to be 1%; in data set [4] (Table 2, rats, 1 hour, read-out: % MAO inhibition effect after n hour(s), PEA (IMAO.B)), 84%; in data set [4] (Table 2, rats, 2 hours, read-out: % MAO inhibition effect after n hour(s), PEA (IMAO.B)), 85%; in data set [4] (Table 2, rats, 4 hours, read-out: % MAO inhibition effect after n hour(s), PEA (IMAO.B)), 78%; in data set [4] (Table 2, rats, 8 hours, read-out: % MAO inhibition effect after n hour(s), PEA (IMAO.B)), 67%; in data set [4] (Table 2, rats, 24 hours, read-out: % MAO inhibition effect after n hour(s), PEA (IMAO.B)), 31%. For the same molecule, the inhibition at 5 mg/kg is 29% in data set [4] (Table 2, rats, 48 hours, read-out: % MAO inhibition effect after n hour(s), PEA (IMAO.B)) and 21% in data set [4] (Table 2, rats, 72 hours, read-out: % MAO inhibition effect after n hour(s), PEA (IMAO.B)).
For `O=C1O[C@H](CO)CN1c1ccc(OCc2cccc(Cl)c2)cc1` [(Ia), [S(+)] 5-hydroxymethyl 3-p-(meta-chlorobenzyloxy)phenyl oxazolidine-2-one], the figures for the IC50 in data set [1] and in data set [5] were 85 nM and 9000 nM, respectively. Besides, in data set [2] (Table 3), the LD50 was greater than 1000 mg/kg. In data set [6], the “active doses relative to lethal 50 doses” value is on record as “activities at doses much less than the lethal 50 doses”. The inhibition at 5 mg/kg was 3% in data set [3] (setting [7]); 3% in data set [3] (setting [8]); 2% in data set [3] (setting [9]); 3% in data set [3] (setting [10]); 0% in data set [3] (setting [11]); -2% in data set [3] (setting [12]). Further, the inhibition at 5 mg/kg was 47% in data set [4] (setting [13]); 47% in data set [4] (setting [14]); 43% in data set [4] (setting [15]); 30% in data set [4] (setting [16]); 5% in data set [4] (setting [17]); -5% in data set [4] (setting [18]). Moreover, the inhibition at 10 mg/kg worked out at 5% in data set [3] (setting [19]); 1% in data set [3] (setting [20]); 0% in data set [3] (setting [21]); 66% in data set [4] (setting [15]); 36% in data set [4] (setting [17]); 6% in data set [4] (setting [18]). In addition, the inhibition at 20 mg/kg in data set [3] (setting [19]) was 7%; in data set [3] (setting [20]), 3%; in data set [3] (setting [21]), 0%; in data set [4] (setting [15]), 77%; in data set [4] (setting [17]) it was 50%; in data set [4] (setting [18]), 5%. Besides, in data set [4] (in words, compared with racemic), the specificity and reversibility result is listed as “much greater specificity”. The level of activity entry in data set [4] (in words, compared with racemic or dose) was “activity increases with the dose administered”.

The values above are taken from US4598084A, “Optically active derivatives of N-arylated oxazolidine-2-one, the process for preparing same and their application in therapeutics” (Delalande S.A., priority 1982, dated 1986).
